# Test results reported in PubChem BioAssay (NCI).
#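 At the GI50, growth is halved. The concentration for full growth arrest is given as TGI.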
# Key:
# Assay in all cases: DTP human tumour cell line panel, 384-well format
# EKVX NSCLC = system: EKVX NSCLC
# KM12 colon = system: KM12 colon
# MOLT-4 leukemia = system: MOLT-4 leukemia
# HOP-92 NSCLC = system: HOP-92 NSCLC
# A549 NSCLC = system: A549 NSCLC
# SK-MEL-5 melanoma = system: SK-MEL-5 melanoma
# NCI-H460 NSCLC = system: NCI-H460 NSCLC
# OVCAR-3 ovarian = system: OVCAR-3 ovarian
# MALME-3M melanoma = system: MALME-3M melanoma
# HCC-2998 colon = system: HCC-2998 colon
# UO-31 renal = system: UO-31 renal
# M14 melanoma = system: M14 melanoma
# T-47D breast = system: T-47D breast
smiles,measurement,setting,value
C/C=C1\NC(=O)[C@H]2CSSCCC=C[C@H](CC(=O)N[C@H](C(C)C)C(=O)N2)OC(=O)[C@H](C(C)C)NC1=O,GI50,EKVX NSCLC,< 10 nM
same,TGI,EKVX NSCLC,30.8 nM
same,GI50,KM12 colon,< 10 nM
same,TGI,KM12 colon,< 10 nM
same,GI50,MOLT-4 leukemia,< 10 nM
same,TGI,MOLT-4 leukemia,< 10 nM
same,GI50,HOP-92 NSCLC,< 10 nM
same,TGI,HOP-92 NSCLC,< 10 nM
same,GI50,A549 NSCLC,< 10 nM
same,TGI,A549 NSCLC,< 10 nM
same,GI50,SK-MEL-5 melanoma,< 10 nM
same,TGI,SK-MEL-5 melanoma,< 10 nM
same,GI50,NCI-H460 NSCLC,< 10 nM
same,TGI,NCI-H460 NSCLC,10.1 nM
same,GI50,OVCAR-3 ovarian,< 10 nM
same,TGI,OVCAR-3 ovarian,< 10 nM
same,GI50,MALME-3M melanoma,< 10 nM
same,TGI,MALME-3M melanoma,< 10 nM
same,GI50,HCC-2998 colon,< 10 nM
same,TGI,HCC-2998 colon,< 10 nM
same,GI50,UO-31 renal,43.6 nM
same,TGI,UO-31 renal,159 nM
same,GI50,M14 melanoma,< 10 nM
same,TGI,M14 melanoma,< 10 nM
same,GI50,T-47D breast,< 10 nM
same,TGI,T-47D breast,< 10 nM
